From US20250188136A1, “AV3 MUTANT POLYPEPTIDES FOR PEST CONTROL” (Vestaron Corporation, priority 2021, published 2025) come the findings set out here.

“Also recorded” adds a separate entry of the source. Ends that are not written are not given here.

The subject of one series is houseflies. Description: Housefly injection assay (knock-down). Format: in vivo, Musca domestica. As to conditions: for Activity: knock-down at 5 hours post-injection normalized to Av3b, Yes = insecticidal activity maintained; for housefly knock-down / insecticidal activity relative to Av3b: knock-down at 5 hours post-injection. On the procedure:
An exemplary housefly injection bioassay is as follows: conditioned media is serially diluted to generate full dose-response curves from the housefly injection bioassay. Before injection, adult houseflies (Musca domestica) are immobilized with CO2, and 12-18 mg houseflies are selected for injection. A microapplicator, loaded with a 1 cc syringe and 30-gauge needle, is used to inject 0.5 μL per fly, doses of serially diluted conditioned media samples into houseflies through the body wall of the dorsal thorax. The injected houseflies are placed into closed containers with moist filter paper and breathing holes on the lids, and they are examined by knock-down ratio or by mortality scoring at 24 hours post-injection. Normalized yields are calculated. Peptide yield means the peptide concentration in the conditioned media in units of mg/L. However, peptide yields are not always sufficient to accurately compare the strain production rate. […] A culture with a high cell density may produce a higher concentration of the peptide in the media, even though the peptide production rate of the strain is lower than another strain which has a higher production rate. Accordingly, the term “normalized yield” is created by dividing the peptide yield with the cell density in the corresponding culture and this allows a better comparison of the peptide production rate between strains. The cell density is represented by the light absorbance at 600 nm with a unit of “A” (Absorbance unit).
A housefly injection assay was performed to determine the activity of the new mutants. Adult houseflies were immobilized with CO2 for 10 minutes, and then transferred to a CO2 pan to keep immobilized. Flies with weight between 12-20 mg were picked for injection. The new mutants and Av3b control were diluted in water to proper doses for injection. Next, a 0.5 μL peptide solution was injected into each housefly at the dorsal thorax using a hand-microapplicator with 1 cc all-glass syringe with 30 gauge straight needle. The injected flies were then transferred to a 2 oz. transparent portion container with a wet #4 filter paper. Fly knock-down was assessed at 5-hours post-injection. The activity of a given new mutant was then normalized to the activity of the Av3b production strain (control), using the fly knock-down score at 5 hours.

Series [1] is described as follows: Stability of purified peptide spiked into Av3b fermentation beer (rpHPLC). As to conditions: for resistance to fermentation beer protease cleavage compared to Av3b: spiked into Av3b fermentation beer pH 6.5, room temperature. Format: physicochemical. Here is the method:
To determine the stability of the new mutants, Av3bM19, Av3bM23, Av3bM24, Av3bM25, Av3bM27, and Av3bM28 were purified and incubated in Av3b fermentation beer. The mutants were purified by cation-exchange chromatography using a GE SP-Sephadex C-25 column. The column was first calibrated with 30 mM sodium citrate buffer at pH 3.0. Then, the culture supernatant containing the secreted mutant peptide was loaded into the column to let the mutant peptide bind to the resin. The column was then washed with 30 mM sodium citrate buffer, pH 3.0, followed by washing with 30 mM sodium acetate, pH 4.0. Next, the bound mutant peptide was eluted by 1 M or 2 M NaCl with 30 mM sodium acetate, pH 4.0. The elution was then concentrated and buffer-exchanged to 30 mM sodium acetate, pH 4.0 using a 1 kD cutoff spin concentrator.
After purification, each of the mutants, Av3bM19, Av3bM23, Av3bM24, Av3bM25, Av3bM27, and Av3bM28, were evaluated for stability by spiking them into Av3b strain fermentation beer at pH 6.5. As a negative control, Av3b was evaluated in a pH 4.0 buffer. As a positive control, purified Av3b was evaluated by spiking into the same Av3b fermentation beer at pH 6.5. All stability experiments were performed at room temperature. […] The amount of peptide remaining relative to the beginning was determined by normalizing the peak area at different time to the one at 0 hour for each treatment. The degradation trend is visualized by the bar graph of the relative remaining peptide amount trend.

As for “TSCCPCYWGGCPWGQNCYPEGCSGPK (ends and bridges not checked; cysteine pairing not given here) [Av3bM31]”, in the series on houseflies, the Activity entry is on record as “No”.

In the case of “KSCCPCYWGGCPWGTNCYPEGCSGPK (ends and bridges not checked; cysteine pairing not given here) [Av3bM21]”, the Activity entry with houseflies was “No”.

For the sequence “SSCCPCYWGGCPWGQNCYPEGCSGPT (ends and bridges not checked; cysteine pairing not given here) [Av3bM33]”, in the series with houseflies, the Activity result was “No”.

As to “KSCCPCYWGGCPWGTTCYPNGCDGPK (Av3bM20; VARIANT (1)..(26) Recombinant variant of Anemonia viridis Av3 peptide)”, the Activity entry in the series on houseflies is reported as “No”.

On to “KSCCPCYWPPCPWGQNCYPEGCSGPK (ends and bridges not checked; cysteine pairing not given here) [Av3bM26]”, for which the Activity result in the series on houseflies is “No”.

For the sequence “QSCCPCYWGGCPWGQNCYPEGCSGPH (ends and bridges not checked; cysteine pairing not given here) [Av3bM30]”, in the series on houseflies, the Activity entry is recorded as “No”.

Take “KSCCPCYWPGCPWGQNCYPEGCSGPK (ends and bridges not checked; cysteine pairing not given here) [Av3bM25]”: in the series with houseflies, the “housefly knock-down / insecticidal activity relative to Av3b” value is “without a concomitant reduction in housefly knock-down activity; also recorded: insecticidal activity” and the Activity entry is given as “Yes”.

Turning to “KSCCPCYWAGCPWGQNCYPEGCSGPK (ends and bridges not checked; cysteine pairing not given here) [Av3bM27]”, in the series with houseflies, the “housefly knock-down / insecticidal activity relative to Av3b” value was “behaved like Av3b; also recorded: insecticidal activity comparable to Av3b” and the Activity result is recorded as “Yes”.

As for “SSCCPCYWGGCPWGQNCYPEGCSGPK (ends and bridges not checked; cysteine pairing not given here) [Av3bM32]”, the Activity entry in the series with houseflies is recorded as “No”.

Consider “HSCCPCYWGGCPWGQNCYPEGCSGPK (ends and bridges not checked; cysteine pairing not given here) [Av3bM28]”, for which, in the series with houseflies, the “housefly knock-down / insecticidal activity relative to Av3b” value was “without a concomitant reduction in housefly knock-down activity; also recorded: insecticidal activity” and the Activity entry is “Yes”.

As to “KSCCPCYWGGCPWGQNCYPNGCSGPK (Av3bM23; VARIANT (1)..(26) Recombinant variant of Anemonia viridis Av3 peptide)”, in the series with houseflies, the “housefly knock-down / insecticidal activity relative to Av3b” value was “without a concomitant reduction in housefly knock-down activity; also recorded: insecticidal activity” and the Activity result was “Yes”.

On to “KSCCPCYWGGCPWGQDCYPDGCDGPK (Av3bM19; VARIANT (1)..(26) Recombinant variant of Anemonia viridis Av3 peptide)”, for which, in the series with houseflies, the “housefly knock-down / insecticidal activity relative to Av3b” value is given as “without a concomitant reduction in housefly knock-down activity; also recorded: insecticidal activity” and the Activity entry was “Yes”. The same sequence gave a half-degradation time in series [1] (Av3b production fermentation beer pH 6.5, room temperature (Example 11, FIG. 37)) of 666 h. The same sequence yielded a peptide remaining in series [1] (fermentation beer pH 6.5, room temperature, 248 hours, HPLC peak area relative to starting amount) of 95%. In series [1], the “resistance to fermentation beer protease cleavage compared to Av3b” value is on record as “greater resistance to yeast fermentation beer protease cleavage; also recorded: improved resistance to fermentation beer cleavage; also recorded: resist the degradation in Av3b fermentation beer”.

In turn, “KSCCPCYWPGCPWGQNCYPEGCRGPD (ends and bridges not checked; cysteine pairing not given here) [Av3bM125]” displayed a half-degradation time in series [1] (Av3b production fermentation beer pH 6.5, room temperature (Example 12, FIG. 39)) of 369 h. For the same sequence, in series [1], the “resistance to fermentation beer protease cleavage compared to Av3b” value is “dramatically improved resistance to degradation”.

In the case of “KSCCPCYWGGCPWGQTCYPEGCSGPK (ends and bridges not checked; cysteine pairing not given here) [Av3bM22]”, the Activity entry with houseflies was “No”.
